Measurements reported in US12685781B2, “Anti-HER3 antibody-drug conjugate” (DAIICHI SANKYO COMPANY, LIMITED, priority 2014, dated 2026).

What was measured:
[1] = Stability of released drug derivative; type: physicochemical; settings: self-degradation to release HO—CH2—C(═O)—(NH-DX)
Source text: Meanwhile, in case of NH2—CH2—O—CH2—C(═O)—(NH-DX), it was confirmed that, as the aminal structure in the molecule is unstable, it again undergoes a self-degradation to release the following HO—CH2—C(═O)—(NH-DX). Those compounds can be also preferably used as a production intermediate of the antibody-drug conjugate of the present invention.

topoisomerase I = target: T1, topoisomerase I (Homo sapiens, UniProt P11387); settings: cited from earlier work
T1 sequence (P11387 1-765): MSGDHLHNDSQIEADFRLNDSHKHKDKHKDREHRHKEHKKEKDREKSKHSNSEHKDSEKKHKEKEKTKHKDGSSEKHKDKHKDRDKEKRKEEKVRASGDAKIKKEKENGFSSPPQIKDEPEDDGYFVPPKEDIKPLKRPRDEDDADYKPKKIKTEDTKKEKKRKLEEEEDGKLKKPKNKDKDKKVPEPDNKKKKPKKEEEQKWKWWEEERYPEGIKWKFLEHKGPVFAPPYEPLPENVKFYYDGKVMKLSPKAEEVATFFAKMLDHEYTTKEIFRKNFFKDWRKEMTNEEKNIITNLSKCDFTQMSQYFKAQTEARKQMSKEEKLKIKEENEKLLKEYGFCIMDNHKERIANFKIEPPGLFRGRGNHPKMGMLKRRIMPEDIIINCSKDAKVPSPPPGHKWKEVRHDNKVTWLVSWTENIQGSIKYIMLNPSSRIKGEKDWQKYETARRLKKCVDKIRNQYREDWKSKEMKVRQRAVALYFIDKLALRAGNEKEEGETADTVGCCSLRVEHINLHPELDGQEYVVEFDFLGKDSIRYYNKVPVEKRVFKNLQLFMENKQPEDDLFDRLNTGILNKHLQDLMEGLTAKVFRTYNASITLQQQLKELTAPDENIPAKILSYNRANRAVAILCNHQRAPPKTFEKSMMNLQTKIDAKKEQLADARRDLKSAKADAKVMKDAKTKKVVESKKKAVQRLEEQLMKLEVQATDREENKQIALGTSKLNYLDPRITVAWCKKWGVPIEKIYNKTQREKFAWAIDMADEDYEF

various cancer cells = settings: cited from earlier work
human tumor = human tumor subcutaneously transplanted; cited from earlier work

Row | SMILES | stability of the aminal structure in the molecule [1] | inhibitory activity on topoisomerase I compared to SN-38 and topotecan (topoisomerase I) | cytocidal activity in vitro compared to SN-38 and topotecan (various cancer cells) | antitumor effect (human tumor)
1 | CC[C@@]1(O)C(=O)OCc2c1cc1n(c2=O)Cc2c-1nc1cc(F)c(C)c3c1c2[C@@H](NC(=O)COCN)CC3 [NH2—CH2—O—CH2—C(═O)—(NH-DX)] | unstable |  |  | 
2 | CC[C@@]1(O)C(=O)OCc2c1cc1n(c2=O)Cc2c-1nc1cc(F)c(C)c3c1c2[C@@H](N)CC3 [exatecan, (1S,9S)-1-amino-9-ethyl-5-fluoro-2,3-dihydro-9-hydroxy-4-methyl-1H,12H-benzo[de]pyrano[3′,4′:6,7]indolizino[1,2-b]quinolin-10,13(9H,15H)-dione] |  | higher inhibitory activity | higher cytocidal activity | potent antitumor effect
